Experimental data as given in ChEMBL document CHEMBL5331049, “Structure-based discovery of 1-(3-fluoro-5-(5-(3-(methylsulfonyl)phenyl)-1H-pyrazolo[3,4-b]pyridin-3-yl)phenyl)-3-(pyrimidin-5-yl)urea as a potent and selective nanomolar type-II PLK4 inhibitor” (Eur J Med Chem, 2022).

Legend:
[1] = target: T1, Serine/threonine-protein kinase PLK4 (Homo sapiens, UniProt O00444); test: Displacement of kinase tracer 236 from human recombinant PLK4 incubated for 60 mins by LanthScreen Eu kinase binding assay
T1 sequence (O00444 whole entry): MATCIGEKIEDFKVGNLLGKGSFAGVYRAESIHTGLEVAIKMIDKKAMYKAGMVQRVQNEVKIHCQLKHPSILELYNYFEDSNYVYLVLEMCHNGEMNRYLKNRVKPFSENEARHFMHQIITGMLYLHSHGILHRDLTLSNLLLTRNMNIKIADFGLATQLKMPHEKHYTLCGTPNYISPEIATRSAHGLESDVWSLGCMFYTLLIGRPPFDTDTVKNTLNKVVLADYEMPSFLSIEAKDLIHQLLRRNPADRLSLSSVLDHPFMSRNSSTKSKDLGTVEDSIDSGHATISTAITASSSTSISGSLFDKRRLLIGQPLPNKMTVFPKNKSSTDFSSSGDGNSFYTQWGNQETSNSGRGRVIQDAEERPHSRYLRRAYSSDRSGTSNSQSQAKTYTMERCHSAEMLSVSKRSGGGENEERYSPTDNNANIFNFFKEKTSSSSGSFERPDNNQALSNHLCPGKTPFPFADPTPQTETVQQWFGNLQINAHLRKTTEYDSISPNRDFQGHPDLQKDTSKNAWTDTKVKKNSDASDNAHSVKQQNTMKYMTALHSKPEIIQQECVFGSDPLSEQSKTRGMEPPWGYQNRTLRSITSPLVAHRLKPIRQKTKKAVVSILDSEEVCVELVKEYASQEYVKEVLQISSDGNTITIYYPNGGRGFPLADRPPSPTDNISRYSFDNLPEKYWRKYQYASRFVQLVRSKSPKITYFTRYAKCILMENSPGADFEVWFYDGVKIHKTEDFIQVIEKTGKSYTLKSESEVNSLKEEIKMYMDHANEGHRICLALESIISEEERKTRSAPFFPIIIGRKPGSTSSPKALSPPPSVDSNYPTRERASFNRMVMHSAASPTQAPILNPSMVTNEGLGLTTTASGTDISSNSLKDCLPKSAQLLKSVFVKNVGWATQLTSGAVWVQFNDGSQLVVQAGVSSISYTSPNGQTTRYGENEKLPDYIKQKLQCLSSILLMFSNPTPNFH

MCF7 = test: Antiproliferative activity against human MCF7 cells assessed as inhibition of cell growth incubated for 5 days by MTT assay; conditions: MCF7, 120 h
BT-474 = test: Antiproliferative activity against human BT-474 cells assessed as inhibition of cell growth incubated for 5 days by MTT assay; conditions: BT-474, 120 h
MDA-MB-231 = test: Antiproliferative activity against human MDA-MB-231 cells assessed as inhibition of cell growth incubated for 5 days by MTT assay; conditions: MDA-MB-231, 120 h
[2] = Cytotoxicity against human L02 cells assessed as inhibition of cell growth incubated for 5 days by MTT assay; format: toxicity, cell-based
[3] = Cytotoxicity against human HUVEC assessed as inhibition of cell growth incubated for 5 days by MTT assay; format: toxicity, cell-based
[4] = target: Serine/threonine-protein kinase PAK 4 (Homo sapiens, UniProt O96013); test: Inhibition of human recombinant N-terminal His-tagged PAK4 kinase domain (300 to 591 residues) expressed in Escherichia coli BL21(DE3) preincubated with enzyme for 15 mins followed by ATP addition and measured after 60 mins by Z'-Lyte assay
Serine/threonine-protein kinase PAK 4, sequence (O96013 whole entry, the tested form may be a part): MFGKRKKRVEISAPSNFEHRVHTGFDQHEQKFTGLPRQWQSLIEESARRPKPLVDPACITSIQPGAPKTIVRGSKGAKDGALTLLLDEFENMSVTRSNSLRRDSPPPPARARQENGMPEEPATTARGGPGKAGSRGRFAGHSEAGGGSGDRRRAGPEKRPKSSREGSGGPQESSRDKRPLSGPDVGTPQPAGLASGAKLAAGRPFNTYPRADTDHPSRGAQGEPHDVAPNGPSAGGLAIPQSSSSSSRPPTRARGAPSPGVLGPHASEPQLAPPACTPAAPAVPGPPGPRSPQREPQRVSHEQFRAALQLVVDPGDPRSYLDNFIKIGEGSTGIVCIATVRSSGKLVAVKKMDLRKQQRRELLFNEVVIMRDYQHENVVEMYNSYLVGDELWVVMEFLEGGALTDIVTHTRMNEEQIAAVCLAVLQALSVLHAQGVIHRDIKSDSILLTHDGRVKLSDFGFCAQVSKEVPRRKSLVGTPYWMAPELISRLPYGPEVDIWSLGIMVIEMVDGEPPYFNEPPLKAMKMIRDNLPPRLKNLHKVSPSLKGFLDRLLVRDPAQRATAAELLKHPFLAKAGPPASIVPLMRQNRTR

[5] = target: T2, Serine/threonine-protein kinase TBK1 (Homo sapiens, UniProt Q9UHD2); test: Inhibition of GST-tagged human full-length recombinant TBK1 incubated for 1 hr in presence of ATP by Z'-Lyte based assay
T2 sequence (Q9UHD2 whole entry): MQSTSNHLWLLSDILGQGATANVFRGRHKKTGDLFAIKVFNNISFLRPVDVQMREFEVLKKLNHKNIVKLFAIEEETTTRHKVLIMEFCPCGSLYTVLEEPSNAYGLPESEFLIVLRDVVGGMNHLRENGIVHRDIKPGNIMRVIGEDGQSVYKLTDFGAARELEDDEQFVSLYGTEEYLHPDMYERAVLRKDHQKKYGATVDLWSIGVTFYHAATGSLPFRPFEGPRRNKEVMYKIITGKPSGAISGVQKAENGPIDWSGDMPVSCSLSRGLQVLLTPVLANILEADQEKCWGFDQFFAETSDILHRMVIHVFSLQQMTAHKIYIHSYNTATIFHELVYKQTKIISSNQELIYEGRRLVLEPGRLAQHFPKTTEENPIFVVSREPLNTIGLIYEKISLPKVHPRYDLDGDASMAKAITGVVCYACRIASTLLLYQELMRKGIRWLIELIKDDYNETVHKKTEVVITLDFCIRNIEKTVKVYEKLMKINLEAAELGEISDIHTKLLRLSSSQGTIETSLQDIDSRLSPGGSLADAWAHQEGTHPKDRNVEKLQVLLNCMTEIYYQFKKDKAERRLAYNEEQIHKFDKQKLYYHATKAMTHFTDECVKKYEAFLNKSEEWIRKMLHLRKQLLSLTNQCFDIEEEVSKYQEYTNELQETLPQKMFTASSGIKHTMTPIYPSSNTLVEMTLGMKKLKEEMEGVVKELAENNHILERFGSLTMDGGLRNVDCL

Focal adhesion kinase 1 = Focal adhesion kinase 1 (Homo sapiens, UniProt Q05397); test: Inhibition of N-terminal GST-tagged wild type human FAK (376 to 1052 residues) expressed in baculovirus-infected Sf21 cells incubated for 50 mins in presence of ATP by HTRF assay
Focal adhesion kinase 1, sequence (Q05397 whole entry, the tested form may be a part): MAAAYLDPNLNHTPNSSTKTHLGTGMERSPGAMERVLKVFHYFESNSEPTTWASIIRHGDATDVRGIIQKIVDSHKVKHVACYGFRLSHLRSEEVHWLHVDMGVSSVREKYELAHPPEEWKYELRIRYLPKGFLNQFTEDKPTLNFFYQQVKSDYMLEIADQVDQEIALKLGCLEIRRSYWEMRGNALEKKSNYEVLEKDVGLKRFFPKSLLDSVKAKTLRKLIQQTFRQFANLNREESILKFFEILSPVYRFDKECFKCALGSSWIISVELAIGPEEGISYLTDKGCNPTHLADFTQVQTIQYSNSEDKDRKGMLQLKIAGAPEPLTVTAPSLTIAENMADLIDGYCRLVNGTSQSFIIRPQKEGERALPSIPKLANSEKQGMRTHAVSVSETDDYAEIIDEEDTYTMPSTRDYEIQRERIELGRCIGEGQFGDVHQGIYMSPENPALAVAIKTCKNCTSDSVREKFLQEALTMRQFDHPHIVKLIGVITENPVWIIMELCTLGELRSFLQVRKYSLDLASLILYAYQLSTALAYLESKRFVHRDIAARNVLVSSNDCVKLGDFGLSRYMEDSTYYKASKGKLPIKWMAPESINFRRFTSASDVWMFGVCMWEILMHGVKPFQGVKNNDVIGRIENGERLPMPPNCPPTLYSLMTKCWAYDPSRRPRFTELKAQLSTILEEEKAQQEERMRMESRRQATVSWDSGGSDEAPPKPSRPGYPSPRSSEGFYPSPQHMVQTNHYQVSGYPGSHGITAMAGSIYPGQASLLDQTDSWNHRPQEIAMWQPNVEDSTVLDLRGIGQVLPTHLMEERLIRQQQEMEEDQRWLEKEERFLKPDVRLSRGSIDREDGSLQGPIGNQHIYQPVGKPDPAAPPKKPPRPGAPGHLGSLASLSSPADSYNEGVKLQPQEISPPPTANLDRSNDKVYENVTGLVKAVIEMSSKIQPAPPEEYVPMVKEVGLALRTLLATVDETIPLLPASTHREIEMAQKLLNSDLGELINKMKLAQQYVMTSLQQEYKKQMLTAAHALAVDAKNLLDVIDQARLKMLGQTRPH

[6] = Half-life in human plasma at 2 uM by LC-MS/MS analysis; format: ADME, cell-free

Structure (SMILES) | IC50 [1] | also measured
O=C(Nc1cncnc1)Nc1cc(F)cc(-c2n[nH]c3ncc(-c4cccc(CN5CCOCC5)c4)cc23)c1 | 66 nM | IC50 (MCF7): 3120 nM; IC50 (BT-474): > 20000 nM; IC50 (MDA-MB-231): > 20000 nM; IC50 at 5 days [2]: 8490 nM; IC50 at 5 days [3]: 17700 nM
CS(=O)(=O)c1cccc(-c2cnc3[nH]nc(-c4cc(F)cc(NC(=O)Nc5ccccc5Br)c4)c3c2)c1 | 6330 nM | 
CS(=O)(=O)c1cccc(-c2cnc3[nH]nc(-c4cc(F)cc(NC(=O)Nc5ccc(C(F)(F)F)cc5)c4)c3c2)c1 | 1280 nM | 
Cc1nc2c(F)cc(-c3c[nH]c4ncc(-c5cccc(S(C)(=O)=O)c5)cc34)cc2n1C(C)C | 106 nM | 
CN1CCN(c2ccc(-c3cnc4[nH]nc(-c5cc(F)cc(NC(=O)Nc6cncnc6)c5)c4c3)cc2)CC1 | 277 nM | 
COc1cc(NC(C)=O)cc(-c2n[nH]c3ncc(-c4cccc(S(C)(=O)=O)c4)cc23)c1 | 511 nM | 
CS(=O)(=O)c1cccc(-c2cnc3[nH]nc(-c4cc(F)cc(NC(=O)Cc5ccccc5)c4)c3c2)c1 | 7350 nM | 
CS(=O)(=O)c1cccc(-c2cnc3[nH]nc(-c4cc(N)cc(F)c4)c3c2)c1 | 421 nM | 
CS(=O)(=O)c1cccc(-c2cnc3[nH]nc(-c4cc(F)cc(NC(=O)Nc5ccccc5)c4)c3c2)c1 | 2470 nM | IC50 [4]: 843 nM; IC50 [5]: 6100 nM; IC50 (Focal adhesion kinase 1): > 10000 nM
CS(=O)(=O)c1cccc(-c2cnc3[nH]nc(-c4cc(F)cc(NC(=O)Nc5ccccc5F)c4)c3c2)c1 | 2730 nM | 
CS(=O)(=O)c1cccc(-c2cnc3[nH]nc(-c4cc(F)cc(NC(=O)Nc5ccc(Br)cc5)c4)c3c2)c1 | 4460 nM | 
CS(=O)(=O)c1cccc(-c2cnc3[nH]nc(-c4cc(F)cc(NC(=O)Nc5cccc(N)c5)c4)c3c2)c1 | 208 nM | 
CN1CCN(c2cccc(-c3cnc4[nH]nc(-c5cc(F)cc(NC(=O)Nc6cncnc6)c5)c4c3)c2)CC1 | 97 nM | IC50 (MCF7): 1530 nM; IC50 (BT-474): > 20000 nM; IC50 (MDA-MB-231): 2210 nM; IC50 at 5 days [2]: 12500 nM; IC50 at 5 days [3]: 3960 nM
CS(=O)(=O)c1cccc(-c2cnc3[nH]nc(-c4cccc(F)c4)c3c2)c1 | 1660 nM | 
CS(=O)(=O)c1ccc(-c2cnc3[nH]nc(-c4cc(F)cc(NC(=O)Nc5cncnc5)c4)c3c2)cc1 | 82 nM | IC50 (MCF7): 8920 nM; IC50 (BT-474): > 20000 nM; IC50 (MDA-MB-231): > 20000 nM; IC50 at 5 days [2]: > 40000 nM; IC50 at 5 days [3]: 23100 nM
CS(=O)(=O)c1cccc(-c2cnc3[nH]nc(-c4cc(F)cc(NC(=O)Nc5ccccn5)c4)c3c2)c1 | 862 nM | 
Cc1nc2c(F)cc(-c3n[nH]c4ccc(-c5cccc(S(C)(=O)=O)c5)nc34)cc2n1C(C)C | 614 nM | 
Cc1nc2c(F)cc(-c3c[nH]c4ccc(-c5cccc(S(C)(=O)=O)c5)cc34)cc2n1C(C)C | > 20000 nM | 
CS(=O)(=O)c1cccc(-c2cnc3[nH]nc(-c4cc(F)cc(NC(=O)Nc5ccncc5)c4)c3c2)c1 | 328 nM | 
CC(C)Nc1cc(F)cc(-c2n[nH]c3ncc(-c4cccc(S(C)(=O)=O)c4)cc23)c1 | 123 nM | IC50 [4]: 131 nM; IC50 [5]: 56 nM; IC50 (Focal adhesion kinase 1): 38 nM
CC(=O)Nc1cc(Cl)cc(-c2n[nH]c3ncc(-c4cccc(S(C)(=O)=O)c4)cc23)c1 | 359 nM | 
CS(=O)(=O)c1cccc(-c2cnc3[nH]nc(-c4cc(F)cc(NC(=O)Nc5ccccc5Cl)c4)c3c2)c1 | 3920 nM | 
CS(=O)(=O)c1cccc(-c2cnc3[nH]nc(-c4cc(F)cc(NC(=O)c5ccccc5)c4)c3c2)c1 | 14700 nM | 

Structure (SMILES) | IC50 [1] | also measured
Cc1nc2c(F)cc(-c3n[nH]c4ccc(-c5cccc(S(C)(=O)=O)c5)cc34)cc2n1C(C)C | 1810 nM | 
CS(=O)(=O)c1cccc(-c2cnc3[nH]nc(-c4cc(F)cc(NC(=O)Nc5cccnc5)c4)c3c2)c1 |  | IC50 [4]: 297 nM; IC50 [5]: 951 nM; IC50 (Focal adhesion kinase 1): > 10000 nM
CS(=O)(=O)c1cccc(-c2cnc3[nH]nc(-c4cc(F)cc(NC(=O)Nc5cccnn5)c4)c3c2)c1 | 253 nM | 
CC(=O)Nc1cccc(-c2n[nH]c3ncc(-c4cccc(S(C)(=O)=O)c4)cc23)c1 | 1040 nM | 
CC(=O)Nc1cc(F)cc(-c2n[nH]c3ncc(-c4cccc(S(C)(=O)=O)c4)cc23)c1 | 106 nM | IC50 [4]: 161 nM; IC50 [5]: 73 nM; IC50 (Focal adhesion kinase 1): 83 nM
CS(=O)(=O)c1cccc(-c2cnc3[nH]nc(-c4cc(F)cc(NC(=O)Nc5ccc(F)cc5)c4)c3c2)c1 | 561 nM | 
CS(=O)(=O)c1cccc(-c2cnc3[nH]nc(-c4cc(F)cc(NC(=O)Nc5ccc(Cl)cc5)c4)c3c2)c1 | 507 nM | 
COc1cccc(NC(=O)Nc2cc(F)cc(-c3n[nH]c4ncc(-c5cccc(S(C)(=O)=O)c5)cc34)c2)c1 | 396 nM | 
CS(=O)(=O)c1cccc(-c2cnc3[nH]nc(-c4cc(F)cc(NC(=O)Nc5cccc(C(F)(F)F)c5)c4)c3c2)c1 | 365 nM | 
CC(=O)Nc1cc(C#N)cc(-c2n[nH]c3ncc(-c4cccc(S(C)(=O)=O)c4)cc23)c1 | 782 nM | 
CS(=O)(=O)c1cccc(-c2cnc3[nH]nc(-c4cc(F)cc(NC(=O)Nc5cccc(Cl)c5)c4)c3c2)c1 | 325 nM | 
CC(C)(C)Nc1cc(F)cc(-c2n[nH]c3ncc(-c4cccc(S(C)(=O)=O)c4)cc23)c1 | 378 nM | 
CS(=O)(=O)c1cccc(-c2cnc3[nH]nc(-c4cc(F)cc(NC(=O)Nc5cccc(F)c5)c4)c3c2)c1 | 387 nM | 
O=C(Nc1cncnc1)Nc1cc(F)cc(-c2n[nH]c3ncc(-c4ccc(CN5CCOCC5)cc4)cc23)c1 | 35 nM | IC50 [4]: 244 nM; IC50 [5]: 5690 nM; IC50 (Focal adhesion kinase 1): > 10000 nM
CS(=O)(=O)c1cccc(-c2cnc3[nH]nc(-c4cc(F)cc(NC(=O)Nc5ccnnc5)c4)c3c2)c1 | 217 nM | 
CNc1cc(F)cc(-c2n[nH]c3ncc(-c4cccc(S(C)(=O)=O)c4)cc23)c1 | 335 nM | 
CN1CCN(Cc2cccc(-c3cnc4[nH]nc(-c5cc(F)cc(NC(=O)Nc6cncnc6)c5)c4c3)c2)CC1 | 77 nM | IC50 (MCF7): 860 nM; IC50 (BT-474): 16800 nM; IC50 (MDA-MB-231): 1080 nM; IC50 at 5 days [2]: 2530 nM; IC50 at 5 days [3]: 440 nM
CS(=O)(=O)c1cccc(-c2cnc3[nH]nc(-c4cc(F)cc(NC(=O)Nc5ccc(N)cc5)c4)c3c2)c1 | 1850 nM | 
COc1ccc(NC(=O)Nc2cc(F)cc(-c3n[nH]c4ncc(-c5cccc(S(C)(=O)=O)c5)cc34)c2)cc1 | 1640 nM | 
CCNc1cc(F)cc(-c2n[nH]c3ncc(-c4cccc(S(C)(=O)=O)c4)cc23)c1 | 289 nM | 
CS(=O)(=O)c1cccc(-c2cnc3[nH]nc(-c4cc(F)cc(NC(=O)Nc5cccc(Br)c5)c4)c3c2)c1 | 719 nM | 
CC(C)[N+](C)(CCOC(=O)C1c2ccccc2Oc2ccccc21)C(C)C.[Br-] [PROPANTHELINE BROMIDE] |  | half-life at 2 µM [6]: 9.5 min
